From PubChem BioAssay AID1963437 (Molecular Pharmacology Branch, DTP, NCI, 2024)

Tested on: OVCAR-8 complex spheroid, growth inhibition
Experiment: Anticancer human tumor OVCAR-8 cell line growth inhibition [Asc];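 further: spheroids exposed to agents for 7 days before readout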;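 on viability, T/C: percent viability relative to DMSO vehicle wells taken as 100%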
Details: for IC50: curve of first compound; for viability, T/C: stronger effect = lower value
Summary of the method: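 Stromal components (HUVEC and hMSC) are co-assembled with the cancer cells into multicellular spheroids. Drugs are then added singly or paired, at concentrations falling by half-log increments from a clinically achievable maximum, capped at 10 microM without known Cmax.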

- IC50 (second compound 0.00949 µM): > 100 nM
- IC50 (second compound 0.03 µM): > 100 nM
- IC50 (second compound 0.0949 µM): > 100 nM
- IC50 (second compound 0.3 µM): > 100 nM
- IC50 (second compound 0.949 µM): > 100 nM
- IC50 (second compound 3 µM): > 100 nM
Compound: Cn1ncnc1[C@H]1c2n[nH]c(=O)c3cc(F)cc(c23)N[C@@H]1c1ccc(F)cc1 + CCN1C(C(=O)NC23CCC(C(=O)O)(CC2)CC3)C(c2cccc(Cl)c2F)C2(C(=O)Nc3cc(Cl)ccc32)C12CCCCC2
- viability, T/C (second compound 0.00949 µM, first compound 0.000316 µM): 90.7%
- viability, T/C (second compound 0.00949 µM, first compound 0.001 µM): 82.6%
- viability, T/C (second compound 0.00949 µM, first compound 0.00316 µM): 105%
- viability, T/C (second compound 0.00949 µM, first compound 0.01 µM): 111%
- viability, T/C (second compound 0.00949 µM, first compound 0.0316 µM): 105%
- viability, T/C (second compound 0.00949 µM, first compound 0.1 µM): 128%
- viability, T/C (second compound 0.03 µM, first compound 0.000316 µM): 96%
- viability, T/C (second compound 0.03 µM, first compound 0.001 µM): 94.3%
- viability, T/C (second compound 0.03 µM, first compound 0.00316 µM): 104%
- viability, T/C (second compound 0.03 µM, first compound 0.01 µM): 109%
- viability, T/C (second compound 0.03 µM, first compound 0.0316 µM): 107%
- viability, T/C (second compound 0.03 µM, first compound 0.1 µM): 126%
- viability, T/C (second compound 0.0949 µM, first compound 0.000316 µM): 89.8%
- viability, T/C (second compound 0.0949 µM, first compound 0.001 µM): 93.7%
- viability, T/C (second compound 0.0949 µM, first compound 0.00316 µM): 110%
- viability, T/C (second compound 0.0949 µM, first compound 0.01 µM): 95.5%
- viability, T/C (second compound 0.0949 µM, first compound 0.0316 µM): 127%
- viability, T/C (second compound 0.0949 µM, first compound 0.1 µM): 101%
- viability, T/C (second compound 0.3 µM, first compound 0.000316 µM): 87.8%
- viability, T/C (second compound 0.3 µM, first compound 0.001 µM): 110%
- viability, T/C (second compound 0.3 µM, first compound 0.00316 µM): 97.7%
- viability, T/C (second compound 0.3 µM, first compound 0.01 µM): 97%
- viability, T/C (second compound 0.3 µM, first compound 0.0316 µM): 106%
- viability, T/C (second compound 0.3 µM, first compound 0.1 µM): 123%
- viability, T/C (second compound 0.949 µM, first compound 0.000316 µM): 111%
- viability, T/C (second compound 0.949 µM, first compound 0.001 µM): 92%
- viability, T/C (second compound 0.949 µM, first compound 0.00316 µM): 95.3%
- viability, T/C (second compound 0.949 µM, first compound 0.01 µM): 97.1%
- viability, T/C (second compound 0.949 µM, first compound 0.0316 µM): 109%
- viability, T/C (second compound 0.949 µM, first compound 0.1 µM): 126%
- viability, T/C (second compound 3 µM, first compound 0.000316 µM): 98.6%
- viability, T/C (second compound 3 µM, first compound 0.001 µM): 94.3%
- viability, T/C (second compound 3 µM, first compound 0.00316 µM): 104%
- viability, T/C (second compound 3 µM, first compound 0.01 µM): 117%
- viability, T/C (second compound 3 µM, first compound 0.0316 µM): 115%
- viability, T/C (second compound 3 µM, first compound 0.1 µM): 139%
